Results reported in patent US20230406829A1, “Heterocyclic Compound and Preparation Method and Use Thereof” (SYNTRON (JIANGSU) PHARMACEUTICAL TECHNOLOGY CO., LTD., priority 2020, published 2023).

Key:
[1] = biological target: T1, VISTA protein modified by glycosylation (Homo sapiens, UniProt Q9H7M9); assay: Binding ability of compounds to VISTA protein (Biacore S200, CM5 chip); details: compound diluted in 1.05*PBS-P, fitted
T1 sequence (Q9H7M9 33-311): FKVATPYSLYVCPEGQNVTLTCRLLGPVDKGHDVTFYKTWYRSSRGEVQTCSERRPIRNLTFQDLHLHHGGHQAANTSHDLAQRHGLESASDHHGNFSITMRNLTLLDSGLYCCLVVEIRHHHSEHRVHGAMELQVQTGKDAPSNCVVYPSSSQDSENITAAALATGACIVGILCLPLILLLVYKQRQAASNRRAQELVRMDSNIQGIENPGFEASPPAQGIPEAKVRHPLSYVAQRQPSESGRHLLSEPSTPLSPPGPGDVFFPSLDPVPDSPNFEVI
Source text: Ability ability of compounds to VISTA protein • (I) Experimental Equipment and Reagents • 1. The machine model used in this experiment is: Biacore S200. • 2. S-series CM5 chip. […] Goods number: BR-1000-50, the purchase place is GE Healthcare. • 4.

[2] = biological target: T2, recombinant human VISTA protein (Homo sapiens, UniProt Q9H7M9); assay: Inhibition of VISTA interaction: rescue of IFN-γ release in human PBMC (ELISA); assay type: cell-based; details: 72 h, read-out: IC50 (VISTA interaction inhibitory activity)
T2 construct: purchased R & D Systems 7126-B7
Description: • 2. Determination of the inhibition effect of the compounds against VISTA interaction: • (1) Experimental Equipment and Reagents • 1. […] SpectraMax i3X Multifunction microplate reader (Molecular Device) • 3. […] Experimental procedure: • 1.1 Recombinant human VISTA (2.5 μg/ml) and anti-human CD3 antibody (2.5 μg/ml) were added to 96-well plates and stored in 4 C overnight. • 1.2 The next day, the anti-human VISTA antibody was added to the co-incubation for 30 min. Thereafter, cells were washed with 1*PBS and test compounds were added for 30 min. […] At 37 C, 5% CO2Below the conditions, the incubation was continued for 72 h. • 1.3 After separation by centrifugation at 4 C, 200 g*5 min, the supernatant was collected.

T2 sequence (Q9H7M9 with tags, fused parts or gaps limits assumed): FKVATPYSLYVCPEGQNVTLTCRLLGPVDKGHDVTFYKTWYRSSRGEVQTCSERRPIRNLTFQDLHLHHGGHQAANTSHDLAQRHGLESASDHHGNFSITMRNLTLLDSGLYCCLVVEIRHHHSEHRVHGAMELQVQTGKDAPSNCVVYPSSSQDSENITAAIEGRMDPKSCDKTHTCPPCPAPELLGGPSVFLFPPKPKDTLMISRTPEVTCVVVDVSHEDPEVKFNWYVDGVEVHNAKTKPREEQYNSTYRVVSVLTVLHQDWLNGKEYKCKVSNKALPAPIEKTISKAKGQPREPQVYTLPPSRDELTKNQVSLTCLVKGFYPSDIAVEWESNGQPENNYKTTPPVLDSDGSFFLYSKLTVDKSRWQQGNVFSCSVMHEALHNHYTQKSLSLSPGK

Kd [1] [µM] | IC50 [2] [µM] | Structure (SMILES)
– | 0.001 to 0.1 | CC(=O)NCCNCc1cccc(-c2nc3ccc(Br)c(C)c3[nH]2)c1 [Compound 28]
– | 0.001 to 0.1 | CC(=O)NCCNCc1cccc(-c2nc3ccccc3[nH]2)c1 [Compound 29]
– | 0.001 to 0.1 | CC(=O)NCCNC(=O)c1cccc(-c2nc3c(C)c(-c4ccccc4)ccc3[nH]2)c1 [Compound 30]
– | 0.001 to 0.1 | Cc1c(-c2ccccc2)ccc2[nH]c(-c3cccc(C(=O)O)c3)nc12 [Compound 31]
– | 0.001 to 0.1 | CC(=O)NCCNCc1cccc(-c2nc3cc(-c4ccccc4)ccc3[nH]2)c1 [Compound 32]
– | 0.001 to 0.1 | CC(=O)NCCNCc1cccc(-c2nc3cc(C)ccc3[nH]2)c1 [Compound 34]
– | 0.1 to 1 | COc1ccc2[nH]c(-c3cccc(CNCCNC(C)=O)c3)nc2c1 [Compound 35]
– | 0.001 to 0.1 | CC(=O)NCCNCc1cccc(-c2nc3c(F)c(-c4ccccc4)ccc3[nH]2)c1 [Compound 36]
– | 0.1 to 1 | CC(=O)NCCNCc1cccc(-c2nc3c(C(F)(F)F)c(-c4ccccc4)ccc3[nH]2)c1 [Compound 37]
– | 0.001 to 0.1 | Cc1c(-c2ccccc2)ccc2[nH]c(-c3cccc(C(=O)NCCO)c3)nc12 [Compound 38]
– | 0.1 to 1 | Cc1c(-c2ccccc2)ccc2[nH]c(-c3cccc(OCCNCCO)c3)nc12 [Compound 39]
– | 0.1 to 1 | Cc1c(-c2ccccc2)ccc2[nH]c(-c3cccc(COCCN)c3)nc12 [Compound 40]
– | 0.1 to 1 | Cc1c(-c2ccccc2)ccc2[nH]c(-c3cccc(S(=O)(=O)NCCO)c3)nc12 [Compound 41]
– | 0.1 to 1 | CCCOC(=O)c1cccc(-c2nc3c(C)c(-c4ccccc4)ccc3[nH]2)c1 [Compound 42]
– | 0.1 to 1 | CC(=O)NCCNCc1cccc(-c2cc3ccccn3c2)c1 [Compound 43]
– | 0.1 to 1 | CC(=O)NCCNCc1cccc(-c2cc3c(C)c(-c4ccccc4)ccn3c2)c1 [Compound 44]
– | 0.001 to 0.1 | CC(=O)NCCNCc1cccc(-c2cc3ccncn3c2)c1 [Compound 45]
– | 0.001 to 0.1 | COc1cc2cc(-c3cccc(CNCCNC(C)=O)c3)cn2cn1 [Compound 46]

Kd [1] [µM] | IC50 [2] [µM] | Structure (SMILES)
– | 0.001 to 0.1 | CC(=O)NCCNCc1cccc(-c2cn3ccc(-c4ccccc4)nc3n2)c1 [Compound 47]
– | 0.1 to 1 | CC(=O)NCCNCc1cccc(-c2cn3ncc(-c4ccccc4)c(C)c3n2)c1 [Compound 48]
– | 0.1 to 1 | CC(=O)NCCNCc1cccc(-c2nc3cc(CO)ccn3n2)c1 [Compound 49]
– | 0.1 to 1 | CC(=O)NCCNCc1cccc(-c2nc3c(C)c(-c4ccccc4)ccn3n2)c1 [Compound 50]
– | 0.1 to 1 | CC(=O)NCCNCc1cccc(C2=CC3C=CC(c4ccccc4)=NC3O2)c1 (centres unmarked) [Compound 51]
– | 0.1 to 1 | CC(=O)NCCNCc1cccc(C2=NC3C=CC(c4ccccc4)=C(C)C3O2)c1 (centres unmarked) [Compound 52]
– | 0.1 to 1 | CC(=O)NCCNCc1cccc(C2=NC3C=CC(c4ccccc4)=C(C)C3S2)c1 (centres unmarked) [Compound 53]
– | 0.1 to 1 | CC(=O)NCCNCc1cccc(-c2nc3c(O)c(-c4ccccc4)ccc3[nH]2)c1 [Compound 54]
– | 0.001 to 0.1 | COc1c(-c2ccccc2)ccc2[nH]c(-c3cccc(CNCCNC(C)=O)c3)nc12 [Compound 55]
– | 0.001 to 0.1 | CCc1c(-c2ccccc2)ccc2[nH]c(-c3cccc(CNCCNC(C)=O)c3)nc12 [Compound 56]
– | 0.001 to 0.1 | CC(=O)NCCNCc1cccc(-c2nc3c(C#N)c(-c4ccccc4)ccc3[nH]2)c1 [Compound 57]
– | 0.1 to 1 | CC(=O)NCCNCc1cccc(-c2nc3c(CO)c(-c4ccccc4)ccc3[nH]2)c1 [Compound 58]
– | 0.001 to 0.1 | CC(=O)NCCNCc1cccc(-c2nc3c(O)cccc3[nH]2)c1 [Compound 59]
– | 0.001 to 0.1 | CC(=O)NCCNCc1cccc(-c2nc3c(O)c(O)ccc3[nH]2)c1 [Compound 60]
– | 0.1 to 1 | CC(=O)NCCNCc1cccc(-c2nc3c4c(ccc3[nH]2)OCCO4)c1 [Compound 61]
– | 0.1 to 1 | CC(=O)NCCNCc1cccc(-c2nc3cc(-c4ccco4)ccc3[nH]2)c1 [Compound 62]
– | 0.1 to 1 | CC(=O)NCCNCc1cccc(-c2nc3cc(OCc4ccccc4)ccc3[nH]2)c1 [Compound 63]
– | 0.001 to 0.1 | CC(=O)NCCNCc1cccc(-c2nc3cc(C#N)ccc3[nH]2)c1 [Compound 64]

The next lines start with the compound.

Structure (SMILES) | Kd [1] [µM] | IC50 [2] [µM]
CC(=O)NCCNCc1cccc(-c2nc3c(C)c(-c4ccccc4)ccc3[nH]2)c1 [Compound 1] | 0.153 | 0.001 to 0.1
Cc1c(-c2ccccc2)ccc2nc(-c3cccc(CNCC(=O)O)c3)[nH]c12 [Compound 2] | – | 0.1 to 1
Cc1c(-c2ccccc2)ccc2[nH]c(-c3cccc(CN4CCCC[C@H]4C(=O)O)c3)nc12 [Compound 4] | – | 0.001 to 0.1
Cc1c(-c2ccccc2)ccc2[nH]c(-c3cccc(CN[C@H](CO)C(=O)O)c3)nc12 [Compound 5] | – | 0.001 to 0.1
Cc1c(-c2ccccc2)ccc2[nH]c(-c3cccc(CNC[C@@H](O)CC(=O)O)c3)nc12 [Compound 6] | – | 0.001 to 0.1
Cc1c(-c2ccccc2)ccc2nc(-c3cccc(CNCCN)c3)[nH]c12 [Compound 7] | 0.461 | 0.001 to 0.1
Cc1c(-c2ccccc2)ccc2[nH]c(-c3cccc(CN4CC[C@@H](O)C4)c3)nc12 [Compound 8] | – | 0.1 to 1
Cc1c(-c2ccccc2)ccc2[nH]c(-c3cccc(CNC[C@@H]4CCNC4=O)c3)nc12 [Compound 9] | – | 0.001 to 0.1
CC(=O)NCCNCc1ccc(-c2nc3ccc(-c4ccccc4)c(C)c3[nH]2)cc1 [Compound 10] | 0.338 | 0.1 to 1
Cc1c(-c2ccccc2)ccc2[nH]c(-c3ccc(CNCC(=O)O)cc3)nc12 [Compound 11] | – | 0.001 to 0.1
Cc1c(-c2ccccc2)ccc2nc(-c3ccc(CNCCO)cc3)[nH]c12 [Compound 12] | – | 0.1 to 1
Cc1c(-c2ccccc2)ccc2[nH]c(-c3ccc(CN4CCCC[C@H]4C(=O)O)cc3)nc12 [Compound 13] | – | 0.001 to 0.1
Cc1c(-c2ccccc2)ccc2[nH]c(-c3ccc(CN[C@H](CO)C(=O)O)cc3)nc12 [Compound 14] | – | 0.1 to 1
Cc1c(-c2ccccc2)ccc2[nH]c(-c3ccc(CNC[C@@H](O)CC(=O)O)cc3)nc12 [Compound 15] | – | 0.001 to 0.1
CC(=O)NCCNCc1cccc(-c2nc3c(Br)c(-c4ccccc4)ccc3[nH]2)c1 [Compound 16] | – | 0.001 to 0.1
CC(=O)NCCNCc1cccc(-c2nc3c(Cl)c(-c4ccccc4)ccc3[nH]2)c1 [Compound 17] | – | 0.001 to 0.1
CC(=O)NCCNCc1cccc(-c2nc3c(C)c(-c4ccc5c(c4)OCCO5)ccc3[nH]2)c1 [Compound 18] | – | 0.001 to 0.1
COc1cccc(-c2nc3c(C)c(-c4ccccc4)ccc3[nH]2)c1 [Compound 19] | – | 0.1 to 1
Cc1c(-c2ccccc2)ccc2[nH]c(-c3cccc(OCc4ccccc4)c3)nc12 [Compound 20] | – | 0.001 to 0.1
Cc1c(-c2ccccc2)ccc2[nH]c(-c3cccc(OCc4cccnc4)c3)nc12 [Compound 21] | – | 0.1 to 1
Cc1c(-c2ccccc2)ccc2[nH]c(-c3ccc(CNCCO)c(OCc4cccnc4)c3)nc12 [Compound 22] | – | 0.001 to 0.1
COc1cc(-c2nc3c(C)c(-c4ccccc4)ccc3[nH]2)ccc1CN1CC[C@@H](O)C1 [Compound 23] | – | 0.001 to 0.1
COc1cc(-c2nc3c(C)c(-c4ccccc4)ccc3[nH]2)ccc1CNC[C@@H]1CCC(=O)N1 [Compound 24] | – | 0.001 to 0.1
Cc1c(-c2ccccc2)ccc2nc(-c3ccc(CNCCO)cc3)cn12 [Compound 25] | – | 0.1 to 1
CC(=O)NCCNCc1ccc(-c2cn3c(C)c(-c4ccccc4)ccc3n2)cc1 [Compound 26] | – | 0.1 to 1
Cc1c(-c2ccccc2)ccc2nc(-c3cccc(CNCCO)c3)cn12 [Compound 27] | – | 0.001 to 0.1
